Data as given in patent publication US11331369B2, “Endoparasitic depsipeptides” (Zoetis Services LLC, priority 2017, dated 2022).

Columns and labels:
Type in all cases: cell-based
[1] = test system: 4th stage larvae (L4) of Dirofilaria immitis; experiment: Dirofilaria immitis, L4 Stage (DiL4) In Vitro Assay; details: Dirofilaria immitis, 72 h, read-out: DiL4 Minimum Effective Dose (MED), approximately 72 hours incubation; L4 larvae assessed for survival or paralysis
[2] = test system: third stage larvae of Haemonchus contortus; experiment: Haemonchus contortus L3 (HcL3) Assay; details: 96 h, read-out: HcL3 Minimum Effective Dose (MED)
[3] = test system: microfilariae of Dirofilaria immitis; experiment: Dirofilaria immitis, Microfilaria (DiMF) In vitro Assay; details: 72 h, read-out: DiMF Minimum Effective Dose (MED), approximately 72 hours incubation, microfilariae assessed for survival or paralysis

Structure (SMILES) | minimal effective concentration [1] | minimal effective concentration [2] | minimal effective concentration [3]
CC(C)Cc1ncnn1Cc1ccc(C[C@H]2OC(=O)[C@H](CC(C)C)N(C)C(=O)[C@@H](C)OC(=O)[C@H](CC(C)C)N(C)C(=O)[C@@H](Cc3ccc(Cn4ncnc4CC(C)C)cc3)OC(=O)[C@H](CC(C)C)N(C)C(=O)[C@@H](C)OC(=O)[C@H](CC(C)C)N(C)C2=O)cc1 [Example 9-53, (3S,6R,9S,12R,15S,18R,21S,24R)-3,9,15,21-tetraisobutyl-6,18-bis(4-((5-isobutyl-1H-1,2,4-triazol-1-yl)methyl)benzyl)-4,10,12,16,22,24-hexamethyl-1,7,13,19-tetraoxa-4,10,16,22-tetraazacyclotetracosan-2,5,8,11,14,17,20,23-octaone] | 0.001 to 0.01 µM | 1 to 10 µM | 0.001 to 0.01 µM
CC(C)C[C@H]1C(=O)O[C@H](Cc2ccc(Cn3nccc3C(C)C)cc2)C(=O)N(C)[C@@H](CC(C)C)C(=O)O[C@H](C)C(=O)N(C)[C@@H](CC(C)C)C(=O)O[C@H](Cc2ccc(Cn3nccc3C(C)C)cc2)C(=O)N(C)[C@@H](CC(C)C)C(=O)O[C@H](C)C(=O)N1C [Example 1b-126, (3S,6R,9S,12R,15S,18R,21S,24R)-3,9,15,21-tetraisobutyl-6,18-bis(4-((5-isopropyl-1H-pyrazol-1-yl)methyl)benzyl)-4,10,12,16,22,24-hexamethyl-1,7,13,19-tetraoxa-4,10,16,22-tetraazacyclotetracosan-2,5,8,11,14,17,20,23-octaone] | 0.0001 to 0.001 µM | 1 to 10 µM | 0.001 to 0.01 µM
CC(C)C[C@H]1C(=O)O[C@H](Cc2ccc(Cn3ncnc3C(C)(C)C)cc2)C(=O)N(C)[C@@H](CC(C)C)C(=O)O[C@H](C)C(=O)N(C)[C@@H](CC(C)C)C(=O)O[C@H](Cc2ccc(Cn3ncnc3C(C)(C)C)cc2)C(=O)N(C)[C@@H](CC(C)C)C(=O)O[C@H](C)C(=O)N1C [Example 9-51, (3S,6R,9S,12R,15S,18R,21S,24R)-6,18-bis(4-((5-(tert-butyl)-1H-1,2,4-triazol-1-yl)methyl)benzyl)-3,9,15,21-tetraisobutyl-4,10,12,16,22,24-hexamethyl-1,7,13,19-tetraoxa-4,10,16,22-tetraazacyclotetracosan-2,5,8,11,14,17,20,23-octaone] | 0.001 to 0.01 µM | 1 to 10 µM | 0.001 to 0.01 µM
CC(C)C[C@H]1C(=O)O[C@H](Cc2ccc(Cn3cc(Br)cn3)cc2)C(=O)N(C)[C@@H](CC(C)C)C(=O)O[C@H](C)C(=O)N(C)[C@@H](CC(C)C)C(=O)O[C@H](Cc2ccccc2)C(=O)N(C)[C@@H](CC(C)C)C(=O)O[C@H](C)C(=O)N1C [Example 2-22, (3S,6R,9S,12R,15S,18R,21S,24R)-6-benzyl-18-(4-((4-bromo-1H-pyrazol-1-yl)methyl)benzyl)-3,9,15,21-tetraisobutyl-4,10,12,16,22,24-hexamethyl-1,7,13,19-tetraoxa-4,10,16,22-tetraazacyclotetracosan-2,5,8,11,14,17,20,23-octaone] | 0.0001 to 0.001 µM | 1 to 10 µM | 0.001 to 0.01 µM
CC(C)C[C@H]1C(=O)O[C@H](Cc2ccc(Cn3nccc3C3(C)COC3)cc2)C(=O)N(C)[C@@H](CC(C)C)C(=O)O[C@H](C)C(=O)N(C)[C@@H](CC(C)C)C(=O)O[C@H](Cc2ccc(Cn3nccc3C3(C)COC3)cc2)C(=O)N(C)[C@@H](CC(C)C)C(=O)O[C@H](C)C(=O)N1C [Example 1b-221, (3S,6R,9S,12R,15S,18R,21S,24R)-3,9,15,21-tetraisobutyl-4,6,10,16,18,22-hexamethyl-12,24-bis(4-((5-(3-methyloxetan-3-yl)-1H-pyrazol-1-yl)methyl)benzyl)-1,7,13,19-tetraoxa-4,10,16,22-tetraazacyclotetracosan-2,5,8,11,14,17,20,23-octaone] | 0.001 to 0.01 µM | 1 to 10 µM | 0.001 to 0.01 µM
CC(C)C[C@H]1C(=O)O[C@H](Cc2ccc(Cn3cc(C(F)(F)F)ccc3=O)cc2)C(=O)N(C)[C@@H](CC(C)C)C(=O)O[C@H](C)C(=O)N(C)[C@@H](CC(C)C)C(=O)O[C@H](Cc2ccc(Cn3cc(C(F)(F)F)ccc3=O)cc2)C(=O)N(C)[C@@H](CC(C)C)C(=O)O[C@H](C)C(=O)N1C [Example 9-22, (3S,6R,9S,12R,15S,18R,21S,24R)-3,9,15,21-tetraisobutyl-4,6,10,16,18,22-hexamethyl-12,24-bis(4-((2-oxo-5-(trifluoromethyl)pyridin-1 (2H)-yl)methyl)benzyl)-1,7,13,19-tetraoxa-4,10,16,22-tetraazacyclotetracosan-2,5,8,11,14,17,20,23-octaone] | 0.001 to 0.01 µM | 1 to 10 µM | 0.001 to 0.01 µM
CC(C)C[C@H]1C(=O)O[C@H](Cc2ccc(Cn3nc(C(F)F)cc3C(F)F)cc2)C(=O)N(C)[C@@H](CC(C)C)C(=O)O[C@H](C)C(=O)N(C)[C@@H](CC(C)C)C(=O)O[C@H](Cc2ccc(Cn3nc(C(F)F)cc3C(F)F)cc2)C(=O)N(C)[C@@H](CC(C)C)C(=O)O[C@H](C)C(=O)N1C [Example 1b-89, (3S,6R,9S,12R,15S,18R,21S,24R)-6,18-bis(4-((3,5-bis(difluoromethyl)-1H-pyrazol-1-yl)methyl)benzyl)-3,9,15,21-tetraisobutyl-4,10,12,16,22,24-hexamethyl-1,7,13,19-tetraoxa-4,10,16,22-tetraazacyclotetracosan-2,5,8,11,14,17,20,23-octaone] | ≤ 0.0001 µM | ≤ 1 µM | 0.001 to 0.01 µM
CC(C)C[C@H]1C(=O)O[C@H](Cc2ccc(Cn3cc(I)cn3)cc2)C(=O)N(C)[C@@H](CC(C)C)C(=O)O[C@H](C)C(=O)N(C)[C@@H](CC(C)C)C(=O)O[C@H](Cc2ccc(Cn3cc(I)cn3)cc2)C(=O)N(C)[C@@H](CC(C)C)C(=O)O[C@H](C)C(=O)N1C [Example 1b-46, (3S,6R,9S,12R,15S,18R,21S,24R)-6,18-bis(4-((4-iodo-1H-pyrazol-1-yl)methyl)benzyl)-3,9,15,21-tetraisobutyl-4,10,12,16,22,24-hexamethyl-1,7,13,19-tetraoxa-4,10,16,22-tetraazacyclotetracosan-2,5,8,11,14,17,20,23-octaone] | 0.0001 to 0.001 µM | 1 to 10 µM | 0.001 to 0.01 µM
CC(C)C[C@H]1C(=O)O[C@H](Cc2ccc(Cn3cc(Cl)cn3)cc2)C(=O)N(C)[C@@H](CC(C)C)C(=O)O[C@H](C)C(=O)N(C)[C@@H](CC(C)C)C(=O)O[C@H](Cc2ccc(Cn3cc(Cl)cn3)cc2)C(=O)N(C)[C@@H](CC(C)C)C(=O)O[C@H](C)C(=O)N1C [Example 1b-35, (3S,6R,9S,12R,15S,18R,21S,24R)-6,18-bis(4-((4-chloro-1H-pyrazol-1-yl)methyl)benzyl)-3,9,15,21-tetraisobutyl-4,10,12,16,22,24-hexamethyl-1,7,13,19-tetraoxa-4,10,16,22-tetraazacyclotetracosan-2,5,8,11,14,17,20,23-octaone] | 0.0001 to 0.001 µM | 10 to 100 µM | 0.001 to 0.01 µM
CC(C)C[C@H]1C(=O)O[C@H](Cc2ccc(Cn3nccc3C3CC3C)cc2)C(=O)N(C)[C@@H](CC(C)C)C(=O)O[C@H](C)C(=O)N(C)[C@@H](CC(C)C)C(=O)O[C@H](Cc2ccc(Cn3nccc3C3CC3C)cc2)C(=O)N(C)[C@@H](CC(C)C)C(=O)O[C@H](C)C(=O)N1C (stereo partly drawn) [Example 1b-222, (3S,6R,9S,12R,15S,18R,21S,24R)-3,9,15,21-tetraisobutyl-4,6,10,16,18,22-hexamethyl-12,24-bis(4-((5-(2-methylcyclopropyl)-1H-pyrazol-1-yl)methyl)benzyl)-1,7,13,19-tetraoxa-4,10,16,22-tetraazacyclotetracosan-2,5,8,11,14,17,20,23-octaone] | 0.0001 to 0.001 µM | ≤ 1 µM | 0.01 to 0.1 µM
Cc1ccc(C#N)n1Cc1ccc(C[C@H]2OC(=O)[C@H](CC(C)C)N(C)C(=O)[C@@H](C)OC(=O)[C@H](CC(C)C)N(C)C(=O)[C@@H](Cc3ccccc3)OC(=O)[C@H](CC(C)C)N(C)C(=O)[C@@H](C)OC(=O)[C@H](CC(C)C)N(C)C2=O)cc1 [Example 10-30, 1-(4-(((2R,5S,8R,11S,14R,17S,20R,23S)-14-benzyl-5,11,17,23-tetraisobutyl-4,8,10,16,20,22-hexamethyl-3,6,9,12,15,18,21,24-octaoxo-1,7,13,19-tetraoxa-4,10,16,22-tetraazacyclotetracosan-2-yl)methyl)benzyl)-5-methyl-1H-pyrrole-2-carbonitrile] | 0.0001 to 0.001 µM | 1 to 10 µM | 0.001 to 0.01 µM
CC(C)C[C@H]1C(=O)O[C@H](Cc2ccc(Cn3ccc(N)n3)cc2)C(=O)N(C)[C@@H](CC(C)C)C(=O)O[C@H](C)C(=O)N(C)[C@@H](CC(C)C)C(=O)O[C@H](Cc2ccc(Cn3ccc(N)n3)cc2)C(=O)N(C)[C@@H](CC(C)C)C(=O)O[C@H](C)C(=O)N1C [Example 1b-143, (3S,6R,9S,12R,15S,18R,21S,24R)-6,18-bis(4-((3-amino-1H-pyrazol-1-yl)methyl)benzyl)-3,9,15,21-tetraisobutyl-4,10,12,16,22,24-hexamethyl-1,7,13,19-tetraoxa-4,10,16,22-tetraazacyclotetracosan-2,5,8,11,14,17,20,23-octaone] | 0.001 to 0.01 µM | 1 to 10 µM | 0.001 to 0.01 µM
CC(C)C[C@H]1C(=O)O[C@H](Cc2ccc(C(C3CC3)n3cc(OC(C)C)cn3)cc2)C(=O)N(C)[C@@H](CC(C)C)C(=O)O[C@H](C)C(=O)N(C)[C@@H](CC(C)C)C(=O)O[C@H](Cc2ccc(C(C3CC3)n3cc(OC(C)C)cn3)cc2)C(=O)N(C)[C@@H](CC(C)C)C(=O)O[C@H](C)C(=O)N1C (stereo partly drawn) [Example 1c-5, (3S,6R,9S,12R,15S,18R,21S,24R)-6,18-bis(4-(cyclopropyl(4-isopropoxy-1H-pyrazol-1-yl)methyl)benzyl)-3,9,15,21-tetraisobutyl-4,10,12,16,22,24-hexamethyl-1,7,13,19-tetraoxa-4,10,16,22-tetraazacyclotetracosan-2,5,8,11,14,17,20,23-octaone] | 0.0001 to 0.001 µM | ≤ 1 µM | 0.001 to 0.01 µM
